Assays:
MMP-1 = biological target: T1, MMP-1 (Homo sapiens, UniProt P03956); assay: In vitro MMP inhibition, Ki determination (fluorogenic substrate II); format: biochemical; conditions: value not in parenthesis; read-out: MMP-1 Ki
T1 construct: made in house; host or cells: MMP-1-transfected HT-1080 cells (spent media)
T1 sequence (P03956 100-469): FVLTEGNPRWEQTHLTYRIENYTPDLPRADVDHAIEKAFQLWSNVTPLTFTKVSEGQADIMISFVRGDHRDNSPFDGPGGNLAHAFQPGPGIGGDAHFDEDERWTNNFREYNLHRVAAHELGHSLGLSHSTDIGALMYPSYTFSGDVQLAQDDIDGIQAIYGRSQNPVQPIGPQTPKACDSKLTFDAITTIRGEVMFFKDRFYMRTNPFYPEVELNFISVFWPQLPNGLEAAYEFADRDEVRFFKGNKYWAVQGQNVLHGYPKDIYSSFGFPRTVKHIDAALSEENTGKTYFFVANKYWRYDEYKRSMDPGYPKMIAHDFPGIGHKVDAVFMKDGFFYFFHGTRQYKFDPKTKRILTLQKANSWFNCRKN

MMP-13 = biological target: T2, MMP-13 (Homo sapiens, UniProt P45452); assay: as above; format: biochemical; conditions: value not in parenthesis; read-out: MMP-13 Ki
T2 construct: made in house; host or cells: baculovirus / insect cells
Procedure, shortened: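 Room-temperature, 1 h incubation of APMA-activated recombinant human MMP-13 with 4 μM quenched substrate II (cleaved at Gly-Leu) in pH 7.5 Tris/NaCl/CaCl2 buffer. Inhibition appears as a slowed rise in 330/420 nm fluorescence. Single low enzyme and substrate levels were used for Ki.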

Ki (MMP-1) | Ki (MMP-13) | SMILES
> 10000 nM | 0.842 nM | CCC(C)Cc1ccc(N2CCN(S(=O)(=O)C3(C(=O)NO)CCN(CCOC)CC3)CC2)cc1 (stereo not drawn) [Example 190]
> 10000 nM | 1.93 nM | COCCN1CCC(C(=O)NO)(S(=O)(=O)N2CCN(c3ccc(CC(C)C)cc3)CC2)CC1 [Example 192]
> 10000 nM | 6.05 nM | CCCCCc1ccc(N2CCN(S(=O)(=O)C3(C(=O)NO)CCOCC3)CC2)nn1 [Example 197]
8650 nM | 59.9 nM | O=C(NO)C1(S(=O)(=O)N2CCN(c3ccc(Cl)nn3)CC2)CCOCC1 [Example 198]
2730 nM | 1.36 nM | COCCN1CCC(C(=O)NO)(S(=O)(=O)N2CCN(c3ccc(Br)cc3)CC2)CC1 [Example 201]
7520 nM | 0.967 nM | COCCN1CCC(C(=O)NO)(S(=O)(=O)N2CCN(c3ccc(OC(F)(F)F)cc3)CC2)CC1 [Example 202]
7360 nM | 0.35 nM | O=C(NO)C1(S(=O)(=O)N2CCN(c3ccc(OC(F)(F)F)cc3)CC2)CCN(C2CC2)CC1 [Example 203]
> 10000 nM | 2.4 nM | CCCCCc1ccc(N2CCN(S(=O)(=O)C3(C(=O)NO)CCN(S(N)(=O)=O)CC3)CC2)cc1 [Example 205]
3250 nM | 0.94 nM | Cc1ccc(-c2ccc(N3CCN(S(=O)(=O)C4(C(=O)NO)CCOCC4)CC3)cc2)cc1 [Example 207]
1730 nM | 0.36 nM | O=C(NO)C1(S(=O)(=O)N2CCN(c3ccc(-c4ccc(F)cc4)cc3)CC2)CCOCC1 [Example 208]
> 10000 nM | 3.32 nM | O=C(NO)C1(S(=O)(=O)N2CCN(c3cnc(CCCC(F)(F)F)cn3)CC2)CCOCC1 [Example 209]
> 10000 nM | 0.69 nM | O=C(NO)C1(S(=O)(=O)N2CCN(c3cnc(CCC(F)(F)C(F)(F)F)cn3)CC2)CCOCC1 [Example 210]
> 10000 nM | 734 nM | CCCc1nnc(N2CCN(S(=O)(=O)C3(C(=O)NO)CCOCC3)CC2)s1 [Example 216]
> 10000 nM | 1.21 nM | CCCCc1ccc(N2CCN(S(=O)(=O)C(C)C(=O)NO)CC2)nc1 (stereo not drawn) [Example 217]
> 10000 nM | 1.11 nM | CCCCCc1cnc(N2CCN(S(=O)(=O)C3(C(=O)NO)CCOCC3)CC2)cn1 [Example 219]
9280 nM | 1.79 nM | COCCSc1ccc(N2CCN(S(=O)(=O)C3(C(=O)NO)CCOCC3)CC2)cc1 [Example 227]
> 10000 nM | 1.01 nM | CCCCOc1ccc(N2CCN(S(=O)(=O)C3(C(=O)NO)CCN(c4ccc(OC)c(OC)c4)CC3)CC2)cc1 [Example 229]
> 10000 nM | 0.27 nM | CCCCOc1ccc(N2CCN(S(=O)(=O)C3(C(=O)NO)CCN(C(=O)N4CCN(C)CC4)CC3)CC2)cc1 [Example 230]
> 10000 nM | 0.3 nM | CCCCOc1ccc(N2CCN(S(=O)(=O)C3(C(=O)NO)CCN(CCN(CC)CC)CC3)CC2)cc1 [Example 235]
> 10000 nM | 1.47 nM | CCCCCc1ccc(N2CCN(S(=O)(=O)C3(C(=O)NO)CCN(S(=O)(=O)N(C)C)CC3)CC2)cc1 [Example 236]
> 10000 nM | 1.69 nM | CCCCCc1ccc(N2CCN(S(=O)(=O)C3(C(=O)NO)CCN(S(C)(=O)=O)CC3)CC2)cc1 [Example 237]
> 10000 nM | 1.06 nM | CCCCOc1ccc(N2CCN(S(=O)(=O)C3(C(=O)NO)CCN(c4ccc(N(C)C)cc4)CC3)CC2)cc1 [Example 241]
> 10000 nM | 0.331 nM | CCCCOc1ccc(N2CCN(S(=O)(=O)C3(C(=O)NO)CCN(C(=O)N(CC)CC)CC3)CC2)cc1 [Example 242]
> 10000 nM | 0.24 nM | CCCCOc1ccc(N2CCN(S(=O)(=O)C3(C(=O)NO)CCN(C(=O)N4CCCCC4)CC3)CC2)cc1 [Example 243]
> 10000 nM | 0.57 nM | CCCCOc1ccc(N2CCN(S(=O)(=O)C3(C(=O)NO)CCN(C(=O)N(C(C)C)C(C)C)CC3)CC2)cc1 [Example 244]

More lines, now with the values behind:

SMILES | Ki (MMP-1) | Ki (MMP-13)
COCCN1CCC(C(=O)NO)(S(=O)(=O)N2CCN(c3ccc(CCCCC(C)C)cc3)CC2)CC1 [Example 191] | > 10000 nM | 0.578 nM
CCc1ccc(N2CCN(S(=O)(=O)C3(C(=O)NO)CCN(CCOC)CC3)CC2)cc1 [Example 193] | 7180 nM | 1.77 nM
COCCN1CCC(C(=O)NO)(S(=O)(=O)N2CCN(c3ccc(C)cc3)CC2)CC1 [Example 194] | 7730 nM | 4.06 nM
COCCN1CCC(C(=O)NO)(S(=O)(=O)N2CCN(c3ccccc3)CC2)CC1 [Example 195] | 2980 nM | 8.07 nM
COCCN1CCC(C(=O)NO)(S(=O)(=O)N2CCN(c3nc4ccccc4o3)CC2)CC1 [Example 196] | > 10000 nM | 56.1 nM
CCCCCCc1ccc(N2CCN(S(=O)(=O)C3(C(=O)NO)CCN(CCOC)CC3)CC2)cc1 [Example 199] | > 10000 nM | 0.397 nM
CCCc1ccc(N2CCN(S(=O)(=O)C3(C(=O)NO)CCN(CCOC)CC3)CC2)cc1 [Example 200] | > 10000 nM | 1.61 nM
CCCCCc1ccc(N2CCN(S(=O)(=O)C3(C(=O)NO)CCN(C(=O)CC)CC3)CC2)cc1 [Example 206] | > 10000 nM | 0.41 nM
O=C(NO)C1(S(=O)(=O)N2CCN(c3ccc(OCC(F)(F)C(F)(F)F)cc3)CC2)CCOCC1 [Example 212] | 9810 nM | 0.3 nM
CC(C)Cc1ccc(N2CCN(S(=O)(=O)C3(C(=O)NO)CCOCC3)CC2)c(F)c1 [Example 213] | > 10000 nM | 16.1 nM
CCCCc1nnc(N2CCN(S(=O)(=O)C3(C(=O)NO)CCOCC3)CC2)s1 [Example 214] | > 10000 nM | 482 nM
O=C(NO)C1(S(=O)(=O)N2CCN(c3nncs3)CC2)CCOCC1 [Example 215] | > 10000 nM | 1890 nM
O=C(NO)C1(S(=O)(=O)N2CCN(c3cnc(CCC(F)(F)F)cn3)CC2)CCOCC1 [Example 218] | > 10000 nM | 2.03 nM
CCCCOc1ccc(N2CCN(S(=O)(=O)C3(C(=O)NO)CCN(c4ccc5c(c4)OCO5)CC3)CC2)cc1 [Example 221] | > 10000 nM | 3.52 nM
CCCCOc1ccc(N2CCN(S(=O)(=O)C3(C(=O)NO)CCS(=O)(=O)CC3)CC2)cc1 [Example 222] | > 10000 nM | 3.99 nM
CCCCOc1ccc(N2CCN(S(=O)(=O)C3(C(=O)NO)CCN(c4ccsc4)CC3)CC2)cc1 [Example 223] | > 10000 nM | 1.4 nM
CCCCOc1ccc(N2CCN(S(=O)(=O)C3(C(=O)NO)CCN(c4ccc(C#N)cc4)CC3)CC2)cc1 [Example 225] | > 10000 nM | 5.88 nM
CCCCOc1ccc(N2CCN(S(=O)(=O)C3(C(=O)NO)CCN(c4cccc(C)c4)CC3)CC2)cc1 [Example 226] | > 10000 nM | 4.38 nM
CCCCOc1ccc(N2CCN(S(=O)(=O)C3(C(=O)NO)CCN(C(=O)N4CCCC4)CC3)CC2)cc1 [Example 231] | > 10000 nM | 0.17 nM
CCCCOc1ccc(N2CCN(S(=O)(=O)C3(C(=O)NO)CCSCC3)CC2)cc1 [Example 232] | > 10000 nM | 0.56 nM
CCCCOc1ccc(N2CCN(S(=O)(=O)C3(C(=O)NO)CCN(CCN4CCOCC4)CC3)CC2)cc1 [Example 233] | > 10000 nM | 0.26 nM
CCOCCSc1ccc(N2CCN(S(=O)(=O)C3(C(=O)NO)CCOCC3)CC2)cc1 [Example 234] | > 10000 nM | 1.61 nM
CCCCOc1ccc(N2CCN(S(=O)(=O)C3(C(=O)NO)CCN(CCCC(F)(F)F)CC3)CC2)cc1 [Example 238] | > 10000 nM | 0.53 nM
CCCCCc1ccc(N2CCN(S(=O)(=O)C3(C(=O)NO)CCN(C(C)=O)CC3)CC2)cc1 [Example 239] | > 10000 nM | 0.37 nM
CCCCOc1ccc(N2CCN(S(=O)(=O)C3(C(=O)NO)CCN(C(=O)NC(C)(C)C)CC3)CC2)cc1 [Example 240] | > 10000 nM | 0.327 nM
CCCCOc1ccc(N2CCN(S(=O)(=O)C3(C(=O)NO)CCN(Cc4nccn4C)CC3)CC2)cc1 [Example 245] | > 10000 nM | 0.177 nM
CCCCOc1ccc(N2CCN(S(=O)(=O)C3(C(=O)NO)CCN(Cc4ccc(C)o4)CC3)CC2)cc1 [Example 246] | > 10000 nM | 0.396 nM
CCCCOc1ccc(N2CCN(S(=O)(=O)C3(C(=O)NO)CCN(Cc4ncc[nH]4)CC3)CC2)cc1 [Example 247] | > 10000 nM | 0.166 nM
CCCCOc1ccc(N2CCN(S(=O)(=O)C3(C(=O)NO)CCN(c4ccc(OC)cc4)CC3)CC2)cc1 [Example 249] | > 10000 nM | 2.46 nM

Source: patent publication US20050209278A1, “Piperidinyl- and piperazinyl-sulfonylmethyl hydroxamic acids and their use as protease inhibitors” (priority 2002, published 2005)
